Assay results from PMC1664607 (PLoS Medicine, 2006).
≈ marks a conversion by molar mass, not a printed value. Read-outs that look alike come from different tables or passages of the source.

Legend:
CYP2A6 = molecular target: T1, CYP2A6 (Homo sapiens, UniProt P11509); test: Coumarin 7-hydroxylation in human liver microsomes; assay type: in vitro ADME; conditions: 2 μM coumarin
T1 construct: Standard incubation mixtures of 0.5 ml contained microsomal protein (0.1–0.5 mg); from tissue; host or cells: pooled human liver microsomes (ten donors)
T1 sequence (P11509 1-494): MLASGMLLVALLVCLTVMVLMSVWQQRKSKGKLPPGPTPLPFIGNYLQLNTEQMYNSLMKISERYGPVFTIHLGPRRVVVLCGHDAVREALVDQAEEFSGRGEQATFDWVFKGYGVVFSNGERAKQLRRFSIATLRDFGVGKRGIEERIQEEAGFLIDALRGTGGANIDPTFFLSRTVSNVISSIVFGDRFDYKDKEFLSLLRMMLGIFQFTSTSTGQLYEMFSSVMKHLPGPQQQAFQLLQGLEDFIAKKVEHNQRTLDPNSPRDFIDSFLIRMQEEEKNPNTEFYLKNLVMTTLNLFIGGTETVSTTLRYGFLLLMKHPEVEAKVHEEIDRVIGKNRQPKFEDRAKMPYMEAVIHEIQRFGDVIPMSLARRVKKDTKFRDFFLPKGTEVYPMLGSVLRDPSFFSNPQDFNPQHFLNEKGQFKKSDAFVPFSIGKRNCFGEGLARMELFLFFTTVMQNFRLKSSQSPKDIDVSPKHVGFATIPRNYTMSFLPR

[1] = assay type: in vitro ADME, human, rat, mouse, dog, rabbit, and monkey; conditions: 2 h
Description: The study was undertaken to investigate the metabolites produced by the metabolic reactions of OPC-67683 using human, rat, mouse, dog, rabbit, and monkey liver microsomes. Pooled human liver microsomes (20 mg/ml) from ten donors were prepared at the Biomedical Research Institute, Human and Animal Bridge Discussion Group (Chiba, Japan). Human liver samples were legally procured from the National Disease Research Interchange (http://www.ndriresource.org/) through the international partnership with the Human and Animal Bridge Discussion Group. The study was conducted in accordance with the Declaration of Helsinki.
The reactions were performed in duplicate in a shaking water bath at 37 °C for 2 h. The incubation mixtures were extracted with acetonitrile and ethyl acetate, and the samples were analyzed by HPLC and LC-ESI-MS/MS.

[2] = system: M. tuberculosis ATCC 35812 (Kurono); test: Susceptibility testing (agar dilution MIC); assay type: cell-based; conditions: Mycobacterium tuberculosis, ATCC35812, 336 h; 7H11 agar, 37 °C, 14 d; read-out: MIC
CYP2D6 = molecular target: T2, CYP2D6 (Homo sapiens, UniProt P10635); test: Bufuralol 1′ -hydroxylation in human liver microsomes; assay type: in vitro ADME; conditions: 20 μM bufuralol
T2 construct: Standard incubation mixtures of 0.5 ml contained microsomal protein (0.1–0.5 mg); from tissue; host or cells: pooled human liver microsomes (ten donors)

CYP1A1/2 = test: 7-Ethoxyresorufin O-deethylation in human liver microsomes; assay type: in vitro ADME; conditions: 0.5 μM 7-ethoxyresorufin
[3] = system: M. tuberculosis ATCC 35822 (H37Rv-H-R); test: microbe, parasite or virus in culture; assay type: cell-based; conditions: Mycobacterium tuberculosis, 336 h
[4] = system: M. tuberculosis ATCC 35838 (H37Rv-R-R); test: microbe, parasite or virus in culture; assay type: cell-based; conditions: Mycobacterium tuberculosis, 336 h
CYP2C19 = molecular target: T3, CYP2C19 (Homo sapiens, UniProt P33261); test: S-mephenytoin 4′ -hydroxylation in human liver microsomes; assay type: in vitro ADME; conditions: 100 μM S-mephenytoin
T3 construct: Standard incubation mixtures of 0.5 ml contained microsomal protein (0.1–0.5 mg); from tissue; host or cells: pooled human liver microsomes (ten donors)

[5] = system: clinically isolated M. tuberculosis; test: microbe, parasite or virus in culture; assay type: cell-based; conditions: for MIC90: Mycobacterium tuberculosis, read-out: MIC90
S. typhimurium TA1535 = test: Bacterial reverse mutation (BRM) test; assay type: cell-based
Description: (§1) The BRM test was performed in accordance with OECD Guideline 471 using Salmonella tyiphimurium TA98, TA100, TA1535, and TA1537, and Escherichia coli WP2 uvrA [11]. Each bacterial strain was pre-cultured at 37 °C for 18 h using a nutrient broth (Nissui Pharmaceutical; http://www.nissui-pharm.co.jp/index_e.html). After adjustment to 2.4 at OD660 nm, each bacterial suspension was added to a test tube containing the designated compound in the absence or presence of rat liver microsome (S9) mix. After a 20-min incubation at 37 °C, top agar was added to each test tube and the contents were poured into minimum essential medium (Oriental Yeast; http://www.oyc.co.jp/e/index.htm). The number of revertants was counted 48 h after incubation at 37 °C.

E. coli WP2 uvr A = test: Bacterial reverse mutation (BRM) test; assay type: cell-based
Description: as §1

S. typhimurium TA98 = test: Bacterial reverse mutation (BRM) test; assay type: cell-based
Description: as §1

S. typhimurium TA1537 = test: Bacterial reverse mutation (BRM) test; assay type: cell-based
Description: as §1

[6] = system: mycolic acid synthesis in M. bovis BCG; test: microbe, parasite or virus in culture; assay type: cell-based; conditions: for IC50: Mycobacterium tuberculosis variant bovis BCG, BCG

T2 sequence (P10635 whole entry): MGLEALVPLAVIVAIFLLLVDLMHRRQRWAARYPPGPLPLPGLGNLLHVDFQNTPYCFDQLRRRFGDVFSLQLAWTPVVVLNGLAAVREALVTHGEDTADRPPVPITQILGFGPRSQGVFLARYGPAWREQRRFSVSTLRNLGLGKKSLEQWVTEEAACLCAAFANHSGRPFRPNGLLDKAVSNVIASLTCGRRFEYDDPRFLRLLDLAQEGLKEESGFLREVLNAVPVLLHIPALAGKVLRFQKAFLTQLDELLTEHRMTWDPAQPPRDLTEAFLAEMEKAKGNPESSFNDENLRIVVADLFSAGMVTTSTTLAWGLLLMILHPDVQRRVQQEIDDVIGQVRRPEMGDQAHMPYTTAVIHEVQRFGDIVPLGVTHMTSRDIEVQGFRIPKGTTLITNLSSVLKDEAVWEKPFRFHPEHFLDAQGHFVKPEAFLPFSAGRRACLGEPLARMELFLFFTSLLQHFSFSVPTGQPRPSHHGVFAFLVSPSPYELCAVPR
T3 sequence (P33261 whole entry): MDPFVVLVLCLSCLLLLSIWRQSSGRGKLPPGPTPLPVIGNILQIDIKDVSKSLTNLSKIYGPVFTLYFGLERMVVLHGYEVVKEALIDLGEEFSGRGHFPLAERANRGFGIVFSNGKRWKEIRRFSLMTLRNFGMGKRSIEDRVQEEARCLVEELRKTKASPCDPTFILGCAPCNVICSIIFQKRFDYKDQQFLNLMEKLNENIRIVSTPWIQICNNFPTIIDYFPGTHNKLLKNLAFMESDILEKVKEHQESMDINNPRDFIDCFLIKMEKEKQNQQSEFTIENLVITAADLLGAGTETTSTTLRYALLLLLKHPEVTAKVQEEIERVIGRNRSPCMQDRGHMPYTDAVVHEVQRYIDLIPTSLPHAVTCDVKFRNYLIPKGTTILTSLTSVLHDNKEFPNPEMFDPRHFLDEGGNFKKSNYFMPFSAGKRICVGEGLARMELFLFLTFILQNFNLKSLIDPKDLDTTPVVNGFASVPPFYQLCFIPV

C[C@]1(COc2ccc(N3CCC(Oc4ccc(OC(F)(F)F)cc4)CC3)cc2)Cn2cc([N+](=O)[O-])nc2O1 [OPC-67683, (R)-2-methyl-6-nitro-2-(4-[4-(4-trifluoromethoxyphenoxy)piperidin-1-yl]phenoxymethyl}-2,3-dihydroimidazo[2,1-b]oxazole]
Percent of Control (CYP2A6; 10 μM): 103.1% of Control | Percent of Control (CYP2A6; 30 μM): 97.8% of Control | Stability in the in vitro metabolism of liver microsomes [1]: stable | MIC [2]: 0.012 µg/mL (≈ 0.0225 µM) | Percent of Control (CYP2D6; 10 μM): 99.1% of Control | Percent of Control (CYP2D6; 30 μM): 103.3% of Control | Percent of Control (CYP2D6; 100 μM): 97.8% of Control | Percent of Control (CYP1A1/2; 10 μM): 98.4% of Control | Percent of Control (CYP1A1/2; 30 μM): 102.5% of Control | Percent of Control (CYP1A1/2; 100 μM): 98.6% of Control | MIC [3]: 0.012 µg/mL (≈ 0.0225 µM) | MIC [4]: 0.006 µg/mL (≈ 0.0112 µM) | Percent of Control (CYP2C19; 10 μM): 113.3% of Control | Percent of Control (CYP2C19; 100 μM): 107.6% of Control | MIC90 of OPC-67683 times lower than that of EB [5]: ~303 times | MIC90 of OPC-67683 times lower than that of INH [5]: eight | MIC90 of OPC-67683 times lower than that of RFP [5]: about 24 times | MIC90 of OPC-67683 times lower than that of SM [5]: ~244 times | MIC90 ([5]; EB-susceptible M. tuberculosis (56 strains)): 0.0121 µg/mL (≈ 0.0227 µM) | MIC90 ([5]; INH-susceptible M. tuberculosis (31 strains)): 0.0119 µg/mL (≈ 0.0223 µM) | MIC90 ([5]; RFP-susceptible M. tuberculosis (31 strains)): 0.0125 µg/mL (≈ 0.0233 µM) | MIC90 ([5]; SM-susceptible M. tuberculosis (49 strains)): 0.012 µg/mL (≈ 0.0225 µM) | MIC90 [5]: 0.012 µg/mL (≈ 0.0225 µM) | Revertants/Plate (S. typhimurium TA1535; S9 mix +, 625 μg/plate): 6 Revertants/Plate | Revertants/Plate (S. typhimurium TA1535; S9 mix +, 2,500 μg/plate): 8 Revertants/Plate | Revertants/Plate (S. typhimurium TA1535; S9 mix +, 5,000 μg/plate): 9 Revertants/Plate | Revertants/Plate (S. typhimurium TA1535; S9 mix −, 312.5 μg/plate): 6 Revertants/Plate | Revertants/Plate (S. typhimurium TA1535; S9 mix −, 625 μg/plate): 9 Revertants/Plate | Revertants/Plate (S. typhimurium TA1535; S9 mix −, 2,500 μg/plate): 7 Revertants/Plate | Revertants/Plate (S. typhimurium TA1535; S9 mix −, 5,000 μg/plate): 6 Revertants/Plate | Revertants/Plate (E. coli WP2 uvr A; S9 mix +, 312.5 μg/plate): 23 Revertants/Plate | Revertants/Plate (E. coli WP2 uvr A; S9 mix +, 625 μg/plate): 20 Revertants/Plate | Revertants/Plate (E. coli WP2 uvr A; S9 mix +, 1,250 μg/plate): 25 Revertants/Plate | Revertants/Plate (E. coli WP2 uvr A; S9 mix +, 2,500 μg/plate): 23 Revertants/Plate | Revertants/Plate (E. coli WP2 uvr A; S9 mix +, 5,000 μg/plate): 29 Revertants/Plate | Revertants/Plate (E. coli WP2 uvr A; S9 mix −, 312.5 μg/plate): 23 Revertants/Plate | Revertants/Plate (E. coli WP2 uvr A; S9 mix −, 625 μg/plate): 25 Revertants/Plate | Revertants/Plate (E. coli WP2 uvr A; S9 mix −, 1,250 μg/plate): 20 Revertants/Plate | Revertants/Plate (E. coli WP2 uvr A; S9 mix −, 2,500 μg/plate): 24 Revertants/Plate | Revertants/Plate (E. coli WP2 uvr A; S9 mix −, 5,000 μg/plate): 24 Revertants/Plate | Revertants/Plate (S. typhimurium TA98; S9 mix +, 312.5 μg/plate): 31 Revertants/Plate | Revertants/Plate (S. typhimurium TA98; S9 mix +, 625 μg/plate): 31 Revertants/Plate | Revertants/Plate (S. typhimurium TA98; S9 mix +, 1,250 μg/plate): 30 Revertants/Plate | Revertants/Plate (S. typhimurium TA98; S9 mix +, 2,500 μg/plate): 31 Revertants/Plate | Revertants/Plate (S. typhimurium TA98; S9 mix +, 5,000 μg/plate): 35 Revertants/Plate | Revertants/Plate (S. typhimurium TA98; S9 mix −, 312.5 μg/plate): 29 Revertants/Plate | Revertants/Plate (S. typhimurium TA98; S9 mix −, 625 μg/plate): 29 Revertants/Plate | Revertants/Plate (S. typhimurium TA98; S9 mix −, 1,250 μg/plate): 34 Revertants/Plate | Revertants/Plate (S. typhimurium TA98; S9 mix −, 2,500 μg/plate): 37 Revertants/Plate | Revertants/Plate (S. typhimurium TA98; S9 mix −, 5,000 μg/plate): 31 Revertants/Plate | Revertants/Plate (S. typhimurium TA1537; S9 mix +, 312.5 μg/plate): 73 Revertants/Plate | Revertants/Plate (S. typhimurium TA1537; S9 mix +, 625 μg/plate): 72 Revertants/Plate | Revertants/Plate (S. typhimurium TA1537; S9 mix +, 1,250 μg/plate): 66 Revertants/Plate | Revertants/Plate (S. typhimurium TA1537; S9 mix +, 2,500 μg/plate): 63 Revertants/Plate | Revertants/Plate (S. typhimurium TA1537; S9 mix +, 5,000 μg/plate): 74 Revertants/Plate | Revertants/Plate (S. typhimurium TA1537; S9 mix −, 312.5 μg/plate): 60 Revertants/Plate | Revertants/Plate (S. typhimurium TA1537; S9 mix −, 625 μg/plate): 62 Revertants/Plate | Revertants/Plate (S. typhimurium TA1537; S9 mix −, 1,250 μg/plate): 54 Revertants/Plate | Revertants/Plate (S. typhimurium TA1537; S9 mix −, 2,500 μg/plate): 61 Revertants/Plate | Revertants/Plate (S. typhimurium TA1537; S9 mix −, 5,000 μg/plate): 63 Revertants/Plate | IC50, α-Mycolic acid ([6]; 14C acetic acid incorporation, 60 min, TLC n = 3): >0.25 µg/mL | IC50 ([6]; 1 h, read-out: IC50, Fatty acid): > 0.25 µg/mL | IC50 ([6]; 1 h, read-out: IC50, Keto-mycolic acid): 0.021 µg/mL (≈ 0.0393 µM) | IC50 ([6]; 1 h, read-out: IC50, Methoxy-mycolic acid): 0.036 µg/mL (≈ 0.0674 µM) | IC50 ([6]; 1 h, read-out: IC50, α-Mycolic acid): > 0.25 µg/mL | IC50 ([6]; read-out: IC50 values, synthesis of methoxy- and keto-mycolic acid): 0.021 to 0.036 µg/mL (≈ 0.0393 to 0.0674 µM)
